Source: publication PMC8786932, “Bicyclic azetidines target acute and chronic stages of Toxoplasma gondii by inhibiting parasite phenylalanyl t-RNA synthetase” (Nature Communications, 2022)
Where “and” joins values, the source holds several entries; their conditions need not be identical. Identical values can stand only once. Like-named read-outs stand apart in the source and are kept apart here.

What was measured:
[1] = test system: T. gondii RHΔΔ TgPheRS[L497I]; experiment: Tachyzoite lytic assay, L497I mutant; format: cell-based, Toxoplasma gondii; conditions: for % Parasite Growth: L497I; for EC50: Toxoplasma gondii
Method: In vitro cultures of HFF cells containing mature vacuoles were scraped, passaged through 23 g blunt end needles, and filtered using 3 micron filters. Purified parasites were resuspended in 350 μL of cytomix plus[49] and combined in a BTX 4 mm gap cuvette with 30 μL of PCR amplified templates corresponding to mutations of interest and 10 μg of pSAG1:Cas9-GFP U6:sgTgPheRS^[mut] (in 20 μL, 400 μL total volume, see Supplementary Data 1 for sgRNA sequences) prior to electroporation using a BTX ETM 830 electroporator. Amplified templates for TgPheRS mutations were generated from gBlocks (Integrated DNA Technologies, Coralville, IA, USA) that contain a BclI restriction site that replaces the PAM sequence to protect the repair template from being cut by Cas9. At 16 h post-transfection, transgenic parasites expressing pSAG1:Cas9-GFP were sorted on a Sony SH800 FACS sorter directly into 96-well plates. Single clones containing TgPheRS^[mut] were identified by amplifying a ~500 bp PCR fragment around introduced mutation followed by digestion using BclI (New England Biolabs) BclI sensitive clones were expanded and the locus was Sanger sequenced to verify incorporation of each independent mutation. To generate firefly luciferase (FLuc) expressing strains, freshly harvested parasites were combined with 20 μg of pTUB-FLUC DHFR flox plasmid and 10 μg of pSAG1:Cas9-GFP U6:sgUPRT[50] (in 50 μL cytomix plus) and transformed by electroporation as described above. Parasites were allowed to recover overnight followed by sequential selection with pyrimethamine (1.0 μM) and 5-flurodeoxyuracil (FUDR, 10 μM), as described previously. Stable clones were isolated by limiting dilution and a clone from each genetic background selected based on high luciferase activity (Table 1).
Parasite growth on HFF monolayers was monitored using a 96-well plate-based lytic assay modified from a previously described protocol. […]. Freshly harvested parasites (7.5 × 10^4 /well) were added to each well (in 100uL volume) to reach the final concentration range (10 μM to 0.0005 μM, 200 μL/well, 0.1% DMSO). Plates were incubated for 72 h at 37 °C then culture medium was aspirated and monolayers were fixed with 100% ethanol (ETOH) for 5 min at room temperature (RT). After rinsing with water, wells were stained with 0.1% crystal violet solution for 10 min at RT. Plates were rinsed with water, air dried, and absorption quantified on the Cytation 3 multi-mode imager at 570 nm wavelength. % parasite growth was calculated as 100−[(OD value for infected cultures at each concentration of compound/average OD value for no compound and no parasite infection) × 100]. EC50 values were calculated based on the mean of three biological replicates with each replicate containing two technical replicates.

[2] = test system: T. gondii RHΔΔ TgPheRS[M484I]; experiment: Tachyzoite lytic assay, M484I mutant; format: cell-based; conditions: Toxoplasma gondii
Method: In vitro cultures of HFF cells containing mature vacuoles were scraped, passaged through 23 g blunt end needles, and filtered using 3 micron filters. Purified parasites were resuspended in 350 μL of cytomix plus[49] and combined in a BTX 4 mm gap cuvette with 30 μL of PCR amplified templates corresponding to mutations of interest and 10 μg of pSAG1:Cas9-GFP U6:sgTgPheRS^[mut] (in 20 μL, 400 μL total volume, see Supplementary Data 1 for sgRNA sequences) prior to electroporation using a BTX ETM 830 electroporator. Amplified templates for TgPheRS mutations were generated from gBlocks (Integrated DNA Technologies, Coralville, IA, USA) that contain a BclI restriction site that replaces the PAM sequence to protect the repair template from being cut by Cas9. […]
Parasite growth on HFF monolayers was monitored using a 96-well plate-based lytic assay modified from a previously described protocol. […] Plates were rinsed with water, air dried, and absorption quantified on the Cytation 3 multi-mode imager at 570 nm wavelength. % parasite growth was calculated as 100−[(OD value for infected cultures at each concentration of compound/average OD value for no compound and no parasite infection) × 100]. EC50 values were calculated based on the mean of three biological replicates with each replicate containing two technical replicates.

TgPheRS V262A M484I = target: T1, TgPheRS V262A M484I (Toxoplasma gondii, UniProt A0A125YPN6, M484I/V262A); experiment: Enzyme assay, TgPheRS V262A M484I double mutant; format: biochemical; conditions: for enzyme assay readout (raw): V262A / M484I
T1 sequence (A0A125YPN6 1-525 V262A/M484I): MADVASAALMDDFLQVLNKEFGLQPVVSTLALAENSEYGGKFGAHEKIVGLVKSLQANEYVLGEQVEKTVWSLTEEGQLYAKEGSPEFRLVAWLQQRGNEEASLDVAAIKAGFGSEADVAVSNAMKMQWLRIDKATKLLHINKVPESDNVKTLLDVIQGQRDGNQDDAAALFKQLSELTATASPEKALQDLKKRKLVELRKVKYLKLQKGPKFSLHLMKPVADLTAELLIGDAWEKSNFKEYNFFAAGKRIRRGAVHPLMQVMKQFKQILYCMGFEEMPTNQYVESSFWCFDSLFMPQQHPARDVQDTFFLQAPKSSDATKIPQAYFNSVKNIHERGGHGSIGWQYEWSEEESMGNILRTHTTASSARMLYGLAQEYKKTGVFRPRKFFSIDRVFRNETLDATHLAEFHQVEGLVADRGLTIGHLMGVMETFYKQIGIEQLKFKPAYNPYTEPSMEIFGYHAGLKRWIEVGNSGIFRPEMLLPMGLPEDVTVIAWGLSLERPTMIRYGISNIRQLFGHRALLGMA
T1 sequence (S8EZ50 1-675 partner): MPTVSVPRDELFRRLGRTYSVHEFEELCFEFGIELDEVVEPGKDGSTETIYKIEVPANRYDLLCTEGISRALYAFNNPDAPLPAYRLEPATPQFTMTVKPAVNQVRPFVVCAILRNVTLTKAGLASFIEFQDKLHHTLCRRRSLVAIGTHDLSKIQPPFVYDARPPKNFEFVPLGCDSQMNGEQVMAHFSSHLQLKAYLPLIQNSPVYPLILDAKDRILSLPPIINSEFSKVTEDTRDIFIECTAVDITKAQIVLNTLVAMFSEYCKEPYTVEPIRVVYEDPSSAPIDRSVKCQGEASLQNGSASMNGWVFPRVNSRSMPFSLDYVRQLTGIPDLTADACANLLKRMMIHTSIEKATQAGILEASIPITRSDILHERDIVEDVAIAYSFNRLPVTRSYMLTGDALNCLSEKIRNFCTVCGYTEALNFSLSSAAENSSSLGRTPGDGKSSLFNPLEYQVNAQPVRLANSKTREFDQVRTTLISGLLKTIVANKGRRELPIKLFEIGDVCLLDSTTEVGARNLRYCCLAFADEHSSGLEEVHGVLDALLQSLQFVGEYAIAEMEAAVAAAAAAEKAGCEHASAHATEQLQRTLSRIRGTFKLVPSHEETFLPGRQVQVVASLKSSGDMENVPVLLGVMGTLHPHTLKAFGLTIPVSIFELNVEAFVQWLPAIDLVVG

[3] = 30 mg/kg oral vs 10 mg/kg
C. parvum = conditions: Fig 2A Tg_Pf_Cp EC50s; previously reported values, reference not visible in the shown part; cited from earlier work
[4] = read-out: EC50 (growth restriction)

COc1ccc(NC(=O)N2CCCCN3[C@H](CN(C)C)[C@H](c4ccc(C#Cc5ccccc5)cc4)[C@@H]3C2)cc1 [BRD7929]
% Parasite Growth ([1]; 0.00152416 uM): 80.35% and 85.68% and 82.9%
% Parasite Growth ([1]; 0.00457247 uM): 85.9% and 86.11% and 77.47%
% Parasite Growth ([1]; 0.01371742 uM): 84.76% and 87.14% and 84.02%
% Parasite Growth ([1]; 0.04115226 uM): 84.55% and 85.22% and 84.57%
% Parasite Growth ([1]; 0.12345679 uM): 86.89% and 87% and 83.23%
% Parasite Growth ([1]; 0.37037037 uM): 70.95% and 85.33% and 85.39%
% Parasite Growth ([1]; 1.11111111 uM): 77.92% and 85.54% and 61.12%
% Parasite Growth ([1]; 3.33333333 uM): 63.14%
% Parasite Growth ([1]; 10 uM): 57.07% and 70.68% and 64.5%
EC50 [1, 4]: 2310 nM
EC50 ([1]; read-out: EC50, L497I): 1170 nM
EC50 ([2]; 72 h, read-out: EC50, M484I): 93 nM
EC50 [2, 4]: 65 nM
IC50 (TgPheRS V262A M484I; Table S4, V262A-M484I, read-out: IC50 (enzyme inhibition)): 197 nM
enzyme assay readout (raw) (TgPheRS V262A M484I; 0.000005 μM): 0.3462 and 0.3680 and 0.4006
enzyme assay readout (raw) (TgPheRS V262A M484I; 0.000050 μM): 0.3131 and 0.3315 and 0.3158
enzyme assay readout (raw) (TgPheRS V262A M484I; 0.000500 μM): 0.3040 and 0.3143 and 0.2881
enzyme assay readout (raw) (TgPheRS V262A M484I; 0.005000 μM): 0.2789 and 0.2890 and 0.2929
enzyme assay readout (raw) (TgPheRS V262A M484I; 0.050000 μM): 0.2807 and 0.2760 and 0.2780
enzyme assay readout (raw) (TgPheRS V262A M484I; 0.500000 μM): 0.2333 and 0.2480 and 0.2628
enzyme assay readout (raw) (TgPheRS V262A M484I; 5.000000 μM): 0.2051 and 0.1829 and 0.2098
enzyme assay readout (raw) (TgPheRS V262A M484I; 50.000000 μM): 0.1004 and 0.1152 and 0.1172
plasma levels at increased dose [3]: did not lead to a proportional increase in plasma levels

COc1ccc(NC(=O)N2CCCCN3[C@H](CO)[C@H](c4ccc(C#Cc5ccccc5)cc4)[C@@H]3C2)cc1 [BRD3444]
EC50 (C. parvum): 15 nM
